The values below come from patent publication US11040029B2, “Methods for the administration of certain VMAT2 inhibitors” (Neurocrine Biosciences, Inc., priority 2017, dated 2021).

Entries after “also recorded” stand apart in the source; their conditions may differ. Read-outs that look alike come from different tables or passages of the source.

Data set [1] has as its system CYP2D6. Kind of data set: Metabolic stability in cryopreserved human hepatocytes with/without quinidine.
Description: (§1) Incubation volumes were 250 μL for liver microsomes and 100 μL for hepatocytes. The liver microsomal incubation mixtures contained potassium phosphate buffer (50 mM, pH 7.4) with an NADPH-generating system which consisted of NADP (1 mM), glucose-6-phosphate (5 mM), MgCl2 (3 mM), EDTA (1 mM) and glucose-6-phosphate dehydrogenase (1 Unit/mL) at the final concentrations indicated. The hepatocyte incubation was in KHB buffer. Cryopreserved human hepatocytes were thawed according to the supplier's instruction, and pooled from three female donors. […] Aliquots of supernatant fractions were analyzed by an LC/MS/MS method using an Acquity UPLC liquid chromatography system with an Acquity BEH C18, 1.7 μm (2.1×100 mm) column and the MassLynx 4.1 with QuanLynx data acquisition and processing software, each available from Waters Corp., Milford, Mass.
(§2) Dextromethorphan was used as a positive control. Briefly, the concentration-time data were fitted by nonlinear regression with the following equation: Ct/C0=e^−kt where Ct is the substrate concentration at time t and C0 is the initial concentration (1 μM) at time 0. In the calculations, the area ratio of the substrate peak to an internal standard peak is proportional to the analyte concentration and used for regression analysis to get the value of k. Then the in vivo intrinsic clearance (CLint) can be predicted using the equations below with an assumption that C0 is much lower than Km, a constant that is equal to the substrate concentration at which an enzyme reaction proceeds at half the maximum velocity.
Assay in data set [2]: as above
Conditions: female, human, hepatocytes.
Description: as §1, §2

Data set [3] deals with CYP2D6. Kind of data set: Metabolic stability in human liver microsomes with/without quinidine. On the technique in general: Microsomes from liver hold many membrane-bound enzymes, among them those of drug oxidation.
Description: as §1, §2
Assay in data set [4]: as above
Conditions: both, human, microsomes, pH 7.4.
Description: as §1, §2

Another data set has as its target T1, human VMAT1 transporter (Homo sapiens, UniProt P54219).
T1 construct: expressed in transfected cells
T1 sequence (P54219 1-525): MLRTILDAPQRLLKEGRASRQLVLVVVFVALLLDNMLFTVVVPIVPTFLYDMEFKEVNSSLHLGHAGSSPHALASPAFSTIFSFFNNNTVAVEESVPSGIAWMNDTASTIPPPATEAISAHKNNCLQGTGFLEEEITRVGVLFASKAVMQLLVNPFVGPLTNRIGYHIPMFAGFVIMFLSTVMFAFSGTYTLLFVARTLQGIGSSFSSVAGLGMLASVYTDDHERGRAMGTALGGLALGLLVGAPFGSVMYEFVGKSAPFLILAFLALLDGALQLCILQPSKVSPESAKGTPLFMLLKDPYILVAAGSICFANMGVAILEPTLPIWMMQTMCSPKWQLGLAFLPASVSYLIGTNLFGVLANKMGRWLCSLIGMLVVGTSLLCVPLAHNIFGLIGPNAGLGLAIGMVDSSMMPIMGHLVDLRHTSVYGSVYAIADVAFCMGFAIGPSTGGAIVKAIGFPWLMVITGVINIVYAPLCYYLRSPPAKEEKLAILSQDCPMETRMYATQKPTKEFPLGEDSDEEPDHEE
Kind of data set: Uptake in cells expressing VMAT1. The format is cell-based. Conditions: concentrations up to 10 μM.

For data set [5], the system named is more than 80 targets (GPCRs, cell-surface monoamine transporters, ion channels including HERG). Put plainly: Cerep multi-target activity screen. The format is binding. Conditions: broad panel screen.
A short description of data set [6]: Plasma concentrations of circulating metabolites of VBZ. The format is in vivo. Conditions: after VBZ.
For data set [7], the system named is CYP2D6. Put plainly: in vitro. The conditions noted are these: female, human, hepatocytes.
Description: as §1, §2
Data set [8] can be described thus: in vitro. The conditions noted are these: female, human, hepatocytes.
Description: as §1, §2
Data set [9] deals with CYP2D6, CYP1A1, CYP1A2, CYP1B1, CYP3A4 and CYP3A5. The conditions noted are these: 1 μM, pH 7.4.
Data set [10] deals with CYP2D6. Conditions: both, human, microsomes, 1 μM, pH 7.4.
Description: as §1, §2
A short description of data set [11]: Healthy volunteer studies, coadministration of NBI-98854 with strong CYP2D6 inhibitors. The class given is in vivo, human. The conditions noted are these: NBI-98854 coadministered with strong CYP2D6 inhibitors; preliminary data.
The test system of data set [12] is CYP2D6. Kind of data set: in vitro. The conditions noted are these: both, human, microsomes, pH 7.4.
Description: as §1, §2
The nature of data set [13]: in vitro. The conditions noted are these: both, human, microsomes, pH 7.4.
Description: as §1, §2
Data set [14] deals with dopamine, serotonin and adrenergic receptor subtypes. Put plainly: Detailed radioligand binding assays, monoamine receptors. The conditions noted are these: for interaction with D1 and D2 receptors: radioligand binding assays and broad panel screen.
For data set [15], the system named is CYP2D6. The conditions noted are these: female, human, hepatocytes, 1 μM.
Description: as §1, §2
A short description of data set [16]: Phase 3 clinical trial in tardive dyskinesia, plasma concentrations. The class given is in vivo, human. The conditions noted are these: valbenazine 40 or 80 mg once daily, Weeks 2, 4, 6. How it is done: A Phase 3 clinical trial for patients with tardive dyskinesia (TD) and a psychiatric diagnosis (i.e., schizophrenia/schizoaffective disorder, mood disorder) who received once-daily valbenazine 40 or 80 mg for 6 weeks was also conducted.
Plasma samples for determination of plasma valbenazine and [+]-α-HTBZ concentrations were obtained at Weeks 2, 4, and 6. Plasma valbenazine and [+]-α-HTBZ concentrations were determined using validated HPLC-MS/MS methods. PK parameters were determined using standard non-compartmental methods. Dose-normalized plasma concentrations of valbenazine and [+]-α-HTBZ at Weeks 2, 4, and 6 in the subgroup of patients prescribed concomitant potent CYP2D6 inhibitors (paroxetine, fluoxetine, duloxetine, sertraline, or bupropion) were compared by t-test to respective concentrations in patients not receiving a CYP2D6 inhibitor.

Data set [17] is described as follows: Prolactin release, in vivo surrogate measure.
For data set [18] the following is noted: in vivo; cited from earlier work.
[19] abbreviates: with concomitant CYP2D6 inhibitors.
Setting [20] is: without concomitant CYP2D6 inhibitors.

For the compound `COc1ccc2c(c1)[C@]13CCCC[C@@H]1[C@H](C2)N(C)CC3` [Dextromethorphan], the CLint scaled at 1 μM turned out to be 3.23 mL/min/kg in the data set on CYP2D6 [1] (female, human, hepatocytes); 22.6 mL/min/kg in data set [2]; 8 mL/min/kg in the data set on CYP2D6 [3] (both, human, microsomes, pH 7.4); 50 mL/min/kg in data set [4]. The “% Contribution by CYP2D6” value in the data set with CYP2D6 [1] (human hepatocytes) is given as 85.8%; with CYP2D6 [3] (human liver microsomes) it was 84.0%. In addition, in the data set with CYP2D6 [3] (quinidine 3 μM, text summary for microsomes and hepatocytes), the “inhibition of intrinsic clearance in the presence of quinidine” value is on record as “more than 80%”.

In the case of `COc1cc2c(cc1OC)[C@H]1C[C@@H](OC(=O)[C@@H](N)C(C)(C)O)[C@H](CC(C)C)CN1CC2` [NBI-136110], at human VMAT1 transporter, the “inhibition of uptake through VMAT1” value is recorded as “no significant inhibitory activity; also recorded: no significant effect”. For the same compound, the “affinity for more than 80 binding sites” value in [5] is reported as “little to no affinity”. Further, the “decline of plasma concentrations, half-life” value in data set [6] is on record as “half-lives similar to VBZ”.

`COc1cc2c(cc1OC)[C@H]1C[C@@H](O)[C@H](CC(C)C)CN1CC2` [R,R,R-DHTBZ, (2R,3R,11bR)-3-isobutyl-9,10-dimethoxy-1,3,4,6,7,11b-hexahydro-2H-pyrido[2,1-a]isoquinolin-2-ol]: the CLint scaled at 1 μM turned out to be 4 mL/min/kg with CYP2D6 [7], 8.8 mL/min/kg in the data set “in vitro [8]”, 3.9 mL/min/kg with CYP2D6 [12] and 10.4 mL/min/kg in the data set “in vitro [13]”. Further, in data set [9], the “enzymes catalyzing oxidative metabolism in human liver” value is “in part catalyzed by CYP2D6, with some contribution from CYP1A1, CYP1A2, CYP1B1, CYP3A4 and CYP3A5”. Further, the “% Contribution by CYP2D6” value with CYP2D6 [10] worked out at 62.6%; in the data set on CYP2D6 [15], 54.3%. The “inhibition of uptake through VMAT1” value on human VMAT1 transporter is reported as “no significant inhibitory activity; also recorded: no significant effect”. In data set [11], the “increase of area under the plasma concentration versus time curve (AUC)” value was “approximately 2 fold”. For the same compound, the “increase of maximum plasma concentration (Cmax)” value in [11] is on record as “approximately 2 fold”. Moreover, in [14], the “specificity for VMAT2 versus monoamine receptor subtypes” value is on record as “high specificity”. In data set [5], the “affinity for more than 80 binding sites” value is listed as “little to no affinity”. The entries for the “Mean (±SD) dose-normalized plasma concentration” value in data set [16] (setting [19]) and in [16] (setting [20]) were 0.534 ± 0.321 ng/mL/mg and 0.513 ± 0.326 ng/mL/mg, respectively. The “decline of plasma concentrations, half-life” value in data set [6] was “half-lives similar to VBZ”.

In the case of `COc1cc2c(cc1OC)[C@@H]1C[C@@H](O)[C@@H](CC(C)C)CN1CC2` [R,S,S-DHTBZ], the “interaction with D1 and D2 receptors” value in data set [14] was “interact with D1 and D2 receptors”.

Take `COc1cc2c(cc1OC)[C@@H]1C[C@H](O)[C@@H](CC(C)C)CN1CC2` [S,S,S-DHTBZ]: in data set [14], the “interaction with D1 and D2 receptors” value was “interact with D1 and D2 receptors”.

In the case of `COc1cc2c(cc1OC)C1CC(=O)C(CC(C)C)CN1CC2` (stereo not drawn) [TBZ, tetrabenazine, reference compound], in data set [17], the “increase in serum prolactin levels” value is listed as “increase in serum prolactin levels”. At human VMAT1 transporter, the “inhibition of uptake through VMAT1” value was “no significant inhibitory activity; also recorded: no significant effect”.

For `COc1cc2c(cc1OC)[C@H]1C[C@@H](OC(=O)[C@@H](N)C(C)C)[C@H](CC(C)C)CN1CC2` [Valbenazine, (S)-2-amino-3-methyl-butyric acid (2R,3R,11bR)-3-isobutyl-9,10-dimethoxy-1,3,4,6,7,11b-hexahydro-2H-pyrido[2,1-a]isoquinolin-2-yl ester], the “inhibition of uptake through VMAT1” value on human VMAT1 transporter (listed as VBZ) is listed as “no significant inhibitory activity; also recorded: no significant effect”. Besides, the “affinity for more than 80 binding sites” value in data set [5] is “little to no affinity”. Besides, the “Mean (±SD) dose-normalized plasma concentration” value in [16] (setting [19]) worked out at 3.375 ± 2.037 ng/mL/mg; in data set [16] (setting [20]), 3.683 ± 2.360 ng/mL/mg.

For `COC(=O)[C@H]1[C@H]2C[C@@H]3c4[nH]c5cc(OC)ccc5c4CCN3C[C@H]2C[C@@H](OC(=O)c2cc(OC)c(OC)c(OC)c2)[C@@H]1OC` [reserpine, reference compound], the “inhibition of uptake through VMAT1” value against human VMAT1 transporter is listed as “substantially inhibited uptake through VMAT1”.

Regarding α-dihydrotetrabenazine, in [18], the “increase of AUC” value was roughly 3 fold and the “increase of Cmax” value was “approximately 30%”.

What is called CLint scaled is a measure of how fast metabolising enzymes remove a compound, apart from limits set by blood flow.
